Measurements: patent US8470534B2, “Methods of predicting resistance or sensitivity to therapies for cancer” (priority 2006, dated 2013)

Experiments:
[1] = test system: MCF7, T47D, and Zr-75-1 cells; assay: BrdU incorporation under hormone deprivation / antiestrogen (CDT, CDT/Tam, CDT/ICI); format: cell-based, human
Protocol: (§1) To understand the impact of RB deficiency on the response to hormone deprivation therapy, cells are cultured in CDT, CDT/Tam, or in the presence of pure antiestrogen, ICI182780 (CDT/ICI). Following treatment with these modalities, cells are labeled with BrdU to determine the influence of each agent on cell-cycle progression and the corresponding influence of RB knockdown on this response (FIG. 4B). These experiments are recapitulated in the polyclonal populations of T47D and Zr-75-1 donor and siRb88 cells (FIG. 4C). […] To elucidate the long-term growth effects of these therapies, cell proliferation assays are performed over 9 days. RB-proficient and -deficient MCF7 cells are seeded at equal densities and cultured in CDT/Tam (FIG. 4D). […] Similar results are evident in the same experiments with both T47D and Zr-75-1 RB-proficient and -deficient polyclonal pools (FIG. 4E).
RB target gene upregulation is a prognostic indicator in human breast cancers. RB performs a myriad of functions, the most well understood being repression of the E2F family of transcription factors. To determine the specific influence of the E2F axis on bypassing therapy, an activator E2F is overexpressed in wild-type MCF7 cells. Specifically, cells are infected either with an adenovirus encoding E2F3 (ad-E2F3) or a control virus (Ad-LacZ) and are harvested 3 days after infection for immunoblot analysis of levels of known RB-E2F targets (FIG. 5A). […] As expected, no changes are detected in RB levels, and CDK4 serves as a loading control. In order to assess the response to therapeutic intervention, 3 days after infection Ad-E2F3- or AdLacZ-infected MCF7 cells are separated into 2 major treatment groups: hormone therapy and DNA damage therapy. The estrogen ablation group is then cultured in the absence of estrogen and in the presence of Tam and ICI as described above. Alternatively, the cells in the DNA damage therapy group are treated with 16 μM CDDP for 18 hours prior to washing or treatment with 5 Gy IR. Cells from both therapy groups are BrdU labeled, and the replicative fraction of treated cells is determined with respect to untreated control cells (FIG. 5B).
(§2) To study the effect of estrogen depletion, cells are cultured for 72 hours in phenol red-free DMEM supplemented with 10% CDT serum with addition of 10^−9 M 4-HydroxyTam or 10^−6 M ICI where indicated. Cell growth assays are performed by trypsinizing cells and counting by trypan blue exclusion every 3 days.
Cells treated with IR are exposed to ^137Cs (dose rate: 0.67 Gy/min) at room temperature in tissue culture media. Culture with clinical grade CDDP for 18 hours is performed for all CDDP treatments. For all proliferation studies, cells are labeled with BrdU for 10 hours or 5 hours for LXSN/LXSN-p53dd infected cells, and BrdU immunofluorescence is performed as previously described. All BrdU results are expressed as a percentage of untreated control cells set to 100%, unless otherwise noted.

MCF7 cells = assay: Cell growth assay in CDT/Tam over 9 days; format: cell-based, human
Protocol: as §1, §2

[2] = test system: MCF7, T47D, and Zr-75-1 cells; assay: Immunoblot of cyclin D1 and RB phosphorylation after hormone deprivation with Tam; format: cell-based, human; details: wild-type cells; CDT serum in addition to Tam, 72 hours
Protocol: RB-deficient cells are able to bypass estrogen ablation therapy. To determine the effect of first-line breast cancer antiestrogen therapies on RB function, cells are exposed to several therapeutically relevant conditions. Specifically, wild-type MCF7, T47D, and Zr-75-1 cells are cultured in medium containing either FBS or charcoal dextran-treated (CDT) serum in addition to Tam, so as to antagonize ER function. […] U20S and SaOS2 cells are included as controls for RB and PI 61NK4a expression levels, respectively (FIG. 4a).
as §2
Cells are harvested by trypsinization and lysed in RIPA buffer. Equal amounts of protein, as determined by Bio-Rad DC assay, are resolved by SDS-PAGE. Specific proteins are detected by standard immunoblotting procedures using the following primary antibodies: p16INK4a (F-12; 1:500 dilution), cyclin D1 (H295), PCNA (pc10), cyclin E (HE12), cyclin A (C-19), MCM7 (141.2), E2F3 (C-18), cdk4 (H-22), lamin B (M-20), p21 (C-19), p53 (Ab-6; 1:500 dilution), RB phospho ser 780 (9307S; 1:500 dilution) and anti-RB (G3-245; 1:100 dilution). […]

[3] = test system: ER-positive human breast tumors; assay: Recurrence outcome of ER-positive breast cancer patients on Tam monotherapy by RB/E2F target gene expression group; format: in vivo
Protocol: To determine the significance of RB/E2F target gene expression in human breast cancer, a tumor microarray data set representing 60 breast cancer patients with ER-positive disease who are treated with Tam monotherapy is analyzed. The tumor specimens in all cases are both micro- and macrodissected. […] This clustering placed the macro- and micro-dissected samples from 59 of 60 patients in the same gene expression groups, with only 1 tumor signature split between the high and medium gene expression groups on the condition tree.
To address the importance of the RB deficiency signature on therapeutic response, patient outcome is examined. […] For each patient, the time to disease recurrence is known, and a recurrence-free survival curve is generated (FIG. 6C). Patients responded poorly to Tam in the high expression group, wherein the median recurrence-free survival is 62.5 months, and only 35% remained recurrence free. […] Thus, compromised control of the RB/E2F axis is associated with poor response to Tam in human breast cancer.

[4] = high expression group, Tam monotherapy

For CC/C(=C(\c1ccccc1)c1ccc(OCCN(C)C)cc1)c1ccccc1 [Tam, tamoxifen], the “cell-cycle arrest (replicative fraction, BrdU)” value ([1]; Ad-E2F3-infected versus control infected MCF7 cells, absence of estrogen plus agent) was “significantly reduced levels of cell-cycle arrest”, the “cell-cycle inhibition by the agent (BrdU labeling)” value ([1]; RB-depleted cells (MCF7 siRb28, T47D and Zr-75-1 siRb88), CDT serum plus agent, 3 days) was “significantly reduced” and the “cell-cycle progression (BrdU labeling)” value ([1]; cells harboring functional RB (MCF7, T47D, Zr-75-1 donor), CDT serum plus agent, 3 days, 10^−9 M 4-HydroxyTam or 10^−6 M ICI) was “elicit cell-cycle inhibition”. The “cell proliferation over 9 days” value (MCF7 cells; MCF7 cells lacking RB cultured in CDT/Tam) was “continue to proliferate”, the “cell proliferation over 9 days” value (MCF7 cells; control (RB-proficient) MCF7 cells cultured in CDT/Tam) was “did not exhibit cell proliferation” and the “RB phosphorylation (immunoblot)” value [2] was “RB dephosphorylation”. The “cyclin D1 levels (immunoblot)” value [2] was “cyclin D1 levels decreased”, the median recurrence-free survival [3, 4] was 62.5 months and the “patients remaining recurrence free” value [3, 4] was 35%. The “patients remaining disease free” value ([3]; low/medium RB target gene expression groups, Tam therapy) was “greater than 62%”, the “incidence of cancer recurrence” value ([3]; patients in the high RB/E2F target gene group, Tam monotherapy) was 65% and the “incidence of cancer recurrence” value ([3]; patients in the other 2 groups (low/medium), Tam monotherapy) was 38%.
